Consider 29 molecules from PubChem BioAssay AID330 (DTP/NCI, 2004).

Structures are written as SMILES. “And” between values parts separate entries of the source, which are not always exact repeats. Identical values can stand only once. Inconclusive results and toxic doses are left out.

This assay relates to P388 leukemia ip, CD2F1 mice, survival T/C. As to the kind of experiment: NCI In Vivo Anticancer Drug Screen. Data for tumor model P388 Leukemia (intraperitoneal) in CD2F1 (CDF1) mice. To be noted: endpoint: median survival time, higher = longer survival. A digest of the protocol:
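Mice carrying the transplanted tumor received test compound or vehicle. Survival was recorded in each group, and the value is the treated-group measurement divided by that of the vehicle-treated control group.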

The mark [1] stands for this setting: dose: 50.0 mg/kg/injection, schedule: Q01DX009 (ip), vehicle: saline with Tween-80.
Setting [2] is: dose: 100.0 mg/kg/injection, schedule: Q01DX009 (ip), vehicle: saline with Tween-80.
Where [3] appears, read: dose: 200.0 mg/kg/injection, schedule: Q01DX009 (ip), vehicle: saline with Tween-80.
Where [4] appears, read: dose: 50.0 mg/kg/injection, schedule: Q01DX005 (ip), vehicle: saline with Tween-80.
[5] abbreviates: dose: 100.0 mg/kg/injection, schedule: Q01DX005 (ip), vehicle: saline with Tween-80.
[6] abbreviates: dose: 50.0 mg/kg/injection, schedule: Q01DX005 (ip), vehicle: Klucel (hydroxypropylcellulose) (HPC).
Where [7] appears, read: dose: 100.0 mg/kg/injection, schedule: Q01DX005 (ip), vehicle: Klucel (hydroxypropylcellulose) (HPC).
Where [8] appears, read: dose: 200.0 mg/kg/injection, schedule: Q01DX005 (ip), vehicle: Klucel (hydroxypropylcellulose) (HPC).
Setting [9] is: dose: 50.0 mg/kg/injection, schedule: Q01DX009 (ip), vehicle: Klucel (hydroxypropylcellulose) (HPC).
Setting [10] is: dose: 100.0 mg/kg/injection, schedule: Q01DX009 (ip), vehicle: Klucel (hydroxypropylcellulose) (HPC).
Where [11] appears, read: dose: 50.0 mg/kg/injection, schedule: Q01DX005 (ip), vehicle: saline.
The mark [12] stands for this setting: dose: 100.0 mg/kg/injection, schedule: Q01DX005 (ip), vehicle: saline.
The mark [13] stands for this setting: dose: 100.0 mg/kg/injection, schedule: Q04DX003 (ip), vehicle: saline with Tween-80.
The mark [14] stands for this setting: dose: 200.0 mg/kg/injection, schedule: Q04DX003 (ip), vehicle: saline with Tween-80.
Setting [15] is: dose: 400.0 mg/kg/injection, schedule: Q04DX003 (ip), vehicle: saline with Tween-80.
[16] abbreviates: dose: 200.0 mg/kg/injection, schedule: Q01DX009 (ip), vehicle: Klucel (hydroxypropylcellulose) (HPC).

`CCCCCCC(=O)/C=C/c1ccccc1OC(=O)c1ccc([N+](=O)[O-])cc1`: the T/C runs as follows: under setting [1], 98 % of control; under setting [2], 99 % of control; under setting [3], 96 % of control.
`NC(CCC(N)C(=O)c1ccccc1)C(=O)c1ccccc1` (centres undefined): the T/C was 98 % of control (dose: 60.0 mg/kg/injection, schedule: Q01DX005 (ip), vehicle: saline with Tween-80); 101 % of control (dose: 120.0 mg/kg/injection, schedule: Q01DX005 (ip), vehicle: saline with Tween-80); 93 % of control (dose: 240.0 mg/kg/injection, schedule: Q01DX005 (ip), vehicle: saline with Tween-80).
Take `CC(=O)N(C(C)=O)N(C(C)=O)c1cc2ccccc2cn1`: the T/C is, setting by setting: under setting [4], 88 % of control; under setting [5], 91 % of control.
For `CC1CCCN(c2cc(N(C)C)c([N+](=O)[O-])cc2F)C1` (centres undefined), the T/C by setting is: under setting [6], 99 % of control; under setting [7], 107 % of control; under setting [8], 105 % of control.
With `CN(CCO)c1n[nH]c(=O)c2ccccc12`, the T/C is 109 % of control under setting [1], 101 % of control under setting [2] and 101 % of control under setting [3].
Regarding `O=c1c2oc3ccccc3c2cnn1CCl`, the T/C reads like this: under setting [6], 103 % of control; under setting [7], 103 % of control; under setting [8], 96 % of control.
Regarding `O=C1CC2(CCCC2)CC(=O)N1c1ccc(-c2ccc(N3C(=O)CC4(CCCC4)CC3=O)cc2)cc1`, the T/C is 100 % of control under setting [9] and 94 % of control under setting [10].
Take `N/C(=N/O)NO`: the T/C is 112 % of control and 113 % of control under setting [11]; 122 % of control under setting [12].
Take `ClCSc1ccccc1C1=NCCCN1`: the T/C by setting is: (dose: 0.78 mg/kg/injection, schedule: Q01DX005 (ip), vehicle: saline) 107 % of control; (dose: 1.56 mg/kg/injection, schedule: Q01DX005 (ip), vehicle: saline) 107 % of control; (dose: 3.12 mg/kg/injection, schedule: Q01DX005 (ip), vehicle: saline) 102 % of control.
`COc1ccc2c(c1)no[n+]2[O-]`: the T/C was 93 % of control (dose: 100.0 mg/kg/injection, schedule: Q04DX002 (ip), vehicle: saline); 92 % of control (dose: 200.0 mg/kg/injection, schedule: Q04DX002 (ip), vehicle: saline); 99 % of control (dose: 400.0 mg/kg/injection, schedule: Q04DX002 (ip), vehicle: saline).
Regarding `COC1CC(O)C2OC(c3ccccc3)OCC2O1` (centres undefined), the T/C by setting is: (dose: 100.0 mg/kg/injection, schedule: Q01DX001 (ip), vehicle: saline with Tween-80) 101 % of control; (dose: 200.0 mg/kg/injection, schedule: Q01DX001 (ip), vehicle: saline with Tween-80) 105 % of control; (dose: 400.0 mg/kg/injection, schedule: Q01DX001 (ip), vehicle: saline with Tween-80) 99 % of control.
As for `Cc1c(C)c2c(=O)c3ccccc3[nH]c2c2ccccc12`, the T/C reads like this: under setting [6], 108 % of control; under setting [7], 98 % of control; under setting [8], 109 % of control.
Turning to `COc1ccc(-c2cnc(C(N)=O)c(=O)[nH]2)cc1`, the T/C runs as follows: under setting [13], 104 % of control; under setting [14], 95 % of control; under setting [15], 100 % of control.
In the case of `C=CCCCCCCCCC(=O)N1C(=O)C(c2ccccc2)(c2ccccc2)CSC1=S`, the T/C reads like this: under setting [9], 91 % of control; under setting [10], 92 % of control; under setting [16], 90 % of control.
In the case of `CC(C(=O)O)[As](=O)(O)O` (centres undefined), the T/C is, setting by setting: (dose: 100.0 mg/kg/injection, schedule: Q04DX003 (ip), vehicle: saline) 102 % of control; (dose: 200.0 mg/kg/injection, schedule: Q04DX003 (ip), vehicle: saline) 99 % of control; (dose: 400.0 mg/kg/injection, schedule: Q04DX003 (ip), vehicle: saline) 98 % of control.
Regarding `CCN(CC)CCNc1ccc(C)c2sc3c(O)cccc3c(=O)c12`, the T/C was 104 % of control under setting [1], 100 % of control under setting [2] and 104 % of control under setting [3].
On to `CCOC(=O)C1=C(C)O/C(=C/c2ccc(OC)cc2)C1=O`, for which the T/C by setting is: under setting [9], 98 % of control; under setting [10], 93 % of control; under setting [16], 100 % of control.
As to `O=C(OCCn1c(=O)n(CCOC(=O)c2cccc([N+](=O)[O-])c2)c(=O)n(CCOC(=O)c2cccc([N+](=O)[O-])c2)c1=O)c1cccc([N+](=O)[O-])c1`, the T/C by setting is: (dose: 100.0 mg/kg/injection, schedule: Q04DX003 (ip), vehicle: Klucel (hydroxypropylcellulose) (HPC)) 93 % of control; (dose: 200.0 mg/kg/injection, schedule: Q04DX003 (ip), vehicle: Klucel (hydroxypropylcellulose) (HPC)) 86 % of control; (dose: 400.0 mg/kg/injection, schedule: Q04DX003 (ip), vehicle: Klucel (hydroxypropylcellulose) (HPC)) 87 % of control.
With `c1cc(C2CO2)ccc1Oc1ccc(C2CO2)cc1` (centres undefined), the T/C under setting [9] is 103 % of control, the T/C under setting [10] is 88 % of control and the T/C under setting [16] was 93 % of control.
On to `O=C1C=CC(=O)C2C1CC=C1CCCCC12` (centres undefined), for which the T/C was 106 % of control (dose: 7.5 mg/kg/injection, schedule: Q01DX009 (ip), vehicle: saline with Tween-80); 109 % of control (dose: 15.0 mg/kg/injection, schedule: Q01DX009 (ip), vehicle: saline with Tween-80); 103 % of control (dose: 30.0 mg/kg/injection, schedule: Q01DX009 (ip), vehicle: saline with Tween-80).
Consider `CCCc1c(C(=O)O)c(-c2cccc3ccccc23)c(CCC)c2c1-c1cccc3cccc-2c13`, for which the T/C runs as follows: under setting [1], 105 % of control; under setting [2], 102 % of control; under setting [3], 100 % of control.
As to `O=C(N/N=C/c1ccccn1)c1ccccc1[O-].O=C(N/N=C/c1ccccn1)c1ccccc1[O-].[Mn+2]`, the T/C by setting is: under setting [6], 103 % of control; under setting [7], 101 % of control; under setting [8], 107 % of control.
As to `COC(=O)/C=C/c1ccc[n+]([O-])c1`, the T/C under setting [11] is 99 % of control; the T/C under setting [12] was 98 % of control; the T/C (dose: 200.0 mg/kg/injection, schedule: Q01DX005 (ip), vehicle: saline) was 99 % of control.
Take `C1=Nc2ccccc2/C1=C/c1c[nH]c2ccccc12`: the T/C by setting is: (dose: 25.0 mg/kg/injection, schedule: Q01DX005 (ip), vehicle: saline with Tween-80) 110 % of control; under setting [4], 100 % of control and 103 % of control and 104 % of control; under setting [5], 101 % of control and 103 % of control and 104 % of control; (dose: 200.0 mg/kg/injection, schedule: Q01DX005 (ip), vehicle: saline with Tween-80) 104 % of control and 118 % of control and 122 % of control; (dose: 400.0 mg/kg/injection, schedule: Q01DX005 (ip), vehicle: saline with Tween-80) 104 % of control.
Turning to `COc1cccc(C[n+]2ccccc2C#N)c1OC`, the T/C is 101 % of control (dose: 3.12 mg/kg/injection, schedule: Q04DX002 (ip), vehicle: saline); 102 % of control (dose: 6.25 mg/kg/injection, schedule: Q04DX002 (ip), vehicle: saline); 103 % of control and 92 % of control (dose: 12.5 mg/kg/injection, schedule: Q04DX002 (ip), vehicle: saline).
On to `O=C1CC2(C(=O)N1CN1CCOCC1)c1ccccc1-c1ccccc12`, for which the T/C by setting is: (dose: 50.0 mg/kg/injection, schedule: Q04DX002 (ip), vehicle: Klucel (hydroxypropylcellulose) (HPC)) 109 % of control; (dose: 100.0 mg/kg/injection, schedule: Q04DX002 (ip), vehicle: Klucel (hydroxypropylcellulose) (HPC)) 99 % of control and 108 % of control; (dose: 200.0 mg/kg/injection, schedule: Q04DX002 (ip), vehicle: Klucel (hydroxypropylcellulose) (HPC)) 111 % of control.
As for `CCCCOCN(COCCCC)C(C)Cc1ccccc1` (centres undefined), the T/C (dose: 25.0 mg/kg/injection, schedule: Q01DX009 (ip), vehicle: saline with Tween-80) is 120 % of control.
As to `COCCC/C=C\N1CCOCC1`, the T/C by setting is: (dose: 50.0 mg/kg/injection, schedule: Q01DX009 (ip), vehicle: saline) 99 % of control; (dose: 100.0 mg/kg/injection, schedule: Q01DX009 (ip), vehicle: saline) 101 % of control; (dose: 200.0 mg/kg/injection, schedule: Q01DX009 (ip), vehicle: saline) 95 % of control.
On to `CCOC(=O)c1[nH]cnc1/N=N/N(C)CCO`, for which the T/C runs as follows: under setting [13], 109 % of control; under setting [14], 113 % of control; under setting [15], 118 % of control.
